# Source: PMC9098912, “Molecular basis for inhibiting human glucose transporters by exofacial inhibitors” (Nature Communications, 2022)
# Entries after “also recorded” stand apart in the source; their conditions may differ.
# What was measured:
# GLUT1 = system: GLUT1; design: method as in Siebeneicher et al., 2016; details: SAR of Bayer compounds; ref Siebeneicher et al., 2016; cited from earlier work
# WT GLUT3 = target: T1, WT GLUT3 (Homo sapiens, UniProt P11169, N43T); assay: Microscale thermophoresis (MST) binding assay; design: Figure 1e middle: MST binding curve, Mean / Figure 1e right: MST binding curve, Mean / Figure 2c: MST binding curve, Mean: unit not given here; details: for Figure 1e right: MST binding curve, Mean: GLUT3, log [phloretin]
# T1 construct: His10 (N); made in house; host or cells: Sf9 insect cells (baculovirus)
# T1 sequence (P11169 1-496 N43T): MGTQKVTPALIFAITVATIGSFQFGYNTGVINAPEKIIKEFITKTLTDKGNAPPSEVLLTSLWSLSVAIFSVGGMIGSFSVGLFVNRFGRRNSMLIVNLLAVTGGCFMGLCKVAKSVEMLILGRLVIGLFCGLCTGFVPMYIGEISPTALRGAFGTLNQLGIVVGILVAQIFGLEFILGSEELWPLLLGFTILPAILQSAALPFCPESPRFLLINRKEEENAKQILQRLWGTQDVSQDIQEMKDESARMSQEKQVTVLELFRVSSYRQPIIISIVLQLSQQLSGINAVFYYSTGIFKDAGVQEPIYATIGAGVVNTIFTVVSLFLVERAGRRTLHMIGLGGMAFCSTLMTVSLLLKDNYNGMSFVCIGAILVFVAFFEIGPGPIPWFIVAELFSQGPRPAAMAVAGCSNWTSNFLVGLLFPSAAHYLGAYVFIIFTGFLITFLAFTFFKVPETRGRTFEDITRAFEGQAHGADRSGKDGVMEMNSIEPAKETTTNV
# Description: (§1) All mutants were generated by standard PCR-based strategy.
# (§2) Inhibitors with serial dilutions were mixed with indicated protein. […] MST analyses were conducted on a Monolith NT. […] The MST data was analyzed by Monolith NT.115.
# [1] = target: T2, GLUT3exo (GLUT3 S64W and I305W) (Homo sapiens, UniProt P11169, I305W/N43T/S64W); assay: biochemical; assay type: binding; details: for Figure 1e right: MST binding curve, Mean: GLUT3 dTrp mutant, log [phloretin]
# T2 construct: His10 (N); made in house; host or cells: Sf9 insect cells (baculovirus)
# Description: Following the same principle for the engineering of XylE-WW, we introduced two Trp substitutions, S64W and I305W, on the extracellular segments of TM2 and TM8 of GLUT3, respectively. This variant will be referred to as GLUT3exo hereafter (Fig. 1a). The two bulky substituents were expected to trap GLUT3 in an outward-facing conformation.
# as §1, §2
# T2 sequence (P11169 whole entry N43T/S64W/I305W): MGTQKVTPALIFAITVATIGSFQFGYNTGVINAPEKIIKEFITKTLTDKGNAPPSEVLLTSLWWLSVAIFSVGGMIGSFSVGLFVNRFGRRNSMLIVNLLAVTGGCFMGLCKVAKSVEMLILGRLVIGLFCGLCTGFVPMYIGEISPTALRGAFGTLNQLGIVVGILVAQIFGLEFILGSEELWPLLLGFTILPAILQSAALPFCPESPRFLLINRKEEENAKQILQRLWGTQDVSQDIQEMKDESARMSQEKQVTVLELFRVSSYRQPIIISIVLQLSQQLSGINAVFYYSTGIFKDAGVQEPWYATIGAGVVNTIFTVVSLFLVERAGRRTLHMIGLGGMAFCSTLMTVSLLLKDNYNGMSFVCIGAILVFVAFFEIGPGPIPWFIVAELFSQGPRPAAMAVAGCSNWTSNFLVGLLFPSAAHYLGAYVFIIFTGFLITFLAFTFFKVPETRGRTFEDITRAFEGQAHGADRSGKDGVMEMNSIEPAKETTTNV
smiles,measurement,setting,value
COc1ccccc1N1CCN(c2ncnc3c2cnn3-c2ccccc2)CC1 [cmpd 3],GLUT1 potency,GLUT1,increased the potency
FC(F)(F)Oc1ccccc1N1CCN(c2ncnc3c2cnn3-c2ccccc2)CC1 [cmpd 4],GLUT1 potency,GLUT1,completely inactive
FC(F)(F)c1ccccc1N1CCN(c2ncnc3c2cnn3-c2ccccc2)CC1 [cmpd 6],GLUT1 potency,GLUT1,completely inactive
COc1cccc(N2CCN(c3ncnc4c3cnn4-c3ccccc3)CC2)c1 [cmpd 8],GLUT1 potency,GLUT1,decreased the GLUT1 potency
COc1ccc(N2CCN(c3ncnc4c3cnn4-c3ccccc3)CC2)cc1 [cmpd 10],GLUT1 potency,GLUT1,decreased the GLUT1 potency
COc1ccccc1N1CCN(c2ncnc3c2cnn3-c2ccccc2)CC1C (stereo not shown) [cmpd 37],GLUT1 potency,GLUT1,tolerated
COc1ccccc1N1CC2(C1)CN(c1ncnc3c1cnn3-c1ccccc1)C2 [cmpd 41],GLUT1 potency,GLUT1,less potent
COc1ccccc1N1CCCN(c2ncnc3c2cnn3-c2ccccc2)CC1 [cmpd 42],GLUT1 potency,GLUT1,increased the potency
COc1ccccc1N1CCN(c2ncnc3c2cnn3-c2ccccc2F)CC1 [cmpd 49],GLUT1 potency,GLUT1,without significant loss of GLUT1 inhibition activity; also recorded: increased the potency
COc1ccccc1N1CCN(c2ncnc3c2cnn3-c2ccccn2)CC1 [cmpd 63],GLUT1 potency,GLUT1,significantly reduced the potency
COc1ccccc1N1CCN(c2ncnc3c2cnn3-c2ncccc2F)CC1 [cmpd 66],GLUT1 potency,GLUT1,significantly reduced the potency
COc1ccccc1N1CCN(c2ncnc3c2cnn3-c2ccccc2OC)CC1 [compound 50],GLUT1 potency,GLUT1,without significant loss of GLUT1 inhibition activity
COc1ccccc1N1CCN(c2ncnc3c2cnn3-c2ccccc2C)CC1 [compound 51],GLUT1 potency,GLUT1,without significant loss of GLUT1 inhibition activity
COc1ccccc1N1CCN(c2ncnc3c2cnn3-c2cccnc2)CC1 [compound 64],GLUT1 potency,GLUT1,significantly reduced the potency
COc1ccccc1N1CCN(c2ncnc3c2cnn3-c2ccncc2)CC1 [compound 65],GLUT1 potency,GLUT1,significantly reduced the potency
O=C(CCc1ccc(O)cc1)c1c(O)cc(O)cc1O [phloretin],"Figure 1e right: MST binding curve, Mean",WT GLUT3; M -3.30103,99.1935
same,"Figure 1e right: MST binding curve, Mean",WT GLUT3; M -3.60206,89.7967
same,"Figure 1e right: MST binding curve, Mean",WT GLUT3; M -3.90309,81.0827
same,"Figure 1e right: MST binding curve, Mean",WT GLUT3; M -4.20412,66.445
same,"Figure 1e right: MST binding curve, Mean",WT GLUT3; M -4.50515,50.3655
same,"Figure 1e right: MST binding curve, Mean",WT GLUT3; M -4.80618,41.2635
same,"Figure 1e right: MST binding curve, Mean",WT GLUT3; M -5.10721,25.71
same,"Figure 1e right: MST binding curve, Mean",WT GLUT3; M -5.40824,15.7731
same,"Figure 1e right: MST binding curve, Mean",WT GLUT3; M -5.70927,5.8894
same,"Figure 1e right: MST binding curve, Mean",WT GLUT3; M -6.0103,4.0557
same,"Figure 1e right: MST binding curve, Mean",WT GLUT3; M -6.31133,2.0286
same,"Figure 1e right: MST binding curve, Mean",WT GLUT3; M -6.61236,4.4085
same,"Figure 1e right: MST binding curve, Mean",WT GLUT3; M -6.91339,1.9121
same,"Figure 1e right: MST binding curve, Mean",WT GLUT3; M -7.21442,-7.4814
same,"Figure 1e right: MST binding curve, Mean",WT GLUT3; M -7.51545,-2.4182
same,"Figure 1e right: MST binding curve, Mean",WT GLUT3; M -7.81648,0.9156
same,Kd,WT GLUT3; WT GLUT3,26.3 ± 3.2 µM
same,Kd,[1],15.5 ± 1.5 µM
same,"Figure 1e right: MST binding curve, Mean",[1]; M -3.30103,98.0572
same,"Figure 1e right: MST binding curve, Mean",[1]; M -3.60206,93.8274
same,"Figure 1e right: MST binding curve, Mean",[1]; M -3.90309,89.3364
same,"Figure 1e right: MST binding curve, Mean",[1]; M -4.20412,79.2593
same,"Figure 1e right: MST binding curve, Mean",[1]; M -4.50515,66.4804
same,"Figure 1e right: MST binding curve, Mean",[1]; M -4.80618,46.5416
same,"Figure 1e right: MST binding curve, Mean",[1]; M -5.10721,34.4965
same,"Figure 1e right: MST binding curve, Mean",[1]; M -5.40824,22.7361
same,"Figure 1e right: MST binding curve, Mean",[1]; M -5.70927,13.3872
same,"Figure 1e right: MST binding curve, Mean",[1]; M -6.0103,7.2146
same,"Figure 1e right: MST binding curve, Mean",[1]; M -6.31133,0.8877
same,"Figure 1e right: MST binding curve, Mean",[1]; M -6.61236,6.4707
same,"Figure 1e right: MST binding curve, Mean",[1]; M -6.91339,2.3532
same,"Figure 1e right: MST binding curve, Mean",[1]; M -7.21442,1.6413
same,"Figure 1e right: MST binding curve, Mean",[1]; M -7.51545,0.1149
same,"Figure 1e right: MST binding curve, Mean",[1]; M -7.81648,2.456
